This is an account of results in ChEMBL document CHEMBL1201862, “PubChem BioAssay data set” (2004).

Some test systems named below: SK-MEL-2; Malme-3M; DU-145; HCT-15; SNB-75; HL-60; NCI-H226; IGROV-1; BT-549; NCI-H522; OVCAR-5; LOX IMVI; COLO 205; Hs-578T; U-251; CCRF-CEM; HOP-92; HT-29.
What all share (assay): DTP human tumour cell line panel, 48 h

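Following 48 hours of exposure in 96-well plates, responses at five concentrations were used to interpolate endpoints linearly. GI50: concentration for 50% inhibition of growth.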 The source made the active and inactive calls. No stated cut-off is given here; in the data, active = GI50 up to about 1.1 µM and inactive = higher.

Broadly, the GI50 is the concentration at which growth is held to half of that of the control. As for `CCOC(=O)c1cc(-c2ccn(C(C)=O)c2)c(-c2cc(C)co2)[nH]1`, the GI50 in the experiment with SK-MEL-2 was > 100 µM (inactive); in the experiment on Malme-3M it was > 100 µM (inactive); in the experiment with DU-145, > 100 µM (inactive); in the experiment with HCT-15, above 100 µM; with SNB-75, > 100 µM (inactive); in the experiment on HL-60, > 100 µM (inactive). Besides, the GI50 in the experiment with NCI-H226, with IGROV-1, in the experiment on BT-549, in the experiment on NCI-H522, in the experiment on OVCAR-5 and in the experiment on LOX IMVI was > 100 µM (inactive) each time. Also, the GI50 in the experiment on COLO 205, in the experiment on Hs-578T, in the experiment with U-251 and with CCRF-CEM was > 100 µM (inactive) throughout.

`O=C(NNS(=O)(=O)c1ccccc1)c1csc(NC(=S)NC2CCCCC2)n1`: the GI50 in the experiment on SK-MEL-2 was 22.3 µM (inactive); in the experiment with Malme-3M it was 35.4 µM (inactive); in the experiment on DU-145, 27.2 µM (inactive); in the experiment on HCT-15, 41.6 µM; in the experiment on SNB-75 it was 32.8 µM (inactive); in the experiment with HL-60, 69.5 µM (inactive). Moreover, the GI50 was 67.5 µM (inactive) in the experiment on NCI-H226; 26.5 µM (inactive) with IGROV-1; 55.2 µM (inactive) with HOP-92; 25.4 µM (inactive) in the experiment on BT-549; 26.2 µM (inactive) in the experiment on NCI-H522; 52.1 µM (inactive) in the experiment on OVCAR-5. The GI50 was 17.1 µM (inactive) with LOX IMVI; 33.6 µM (inactive) with HT-29; 19.3 µM (inactive) in the experiment with COLO 205; 33.5 µM (inactive) in the experiment on U-251; 39.6 µM (inactive) in the experiment with CCRF-CEM.

Take `Cc1c(CN2CCN(C)CC2)c(CN2CCN(C)CC2)c(C)n1-c1ccc(Cl)cc1`: the GI50 is 21.3 µM (inactive) in the experiment with SK-MEL-2; 20.9 µM (inactive) with Malme-3M; > 100 µM (inactive) with DU-145; 47 µM with HCT-15; 25.9 µM (inactive) with SNB-75; 33.6 µM (inactive) with NCI-H226. Also, the GI50 is 31.2 µM (inactive) in the experiment on IGROV-1; 45 µM (inactive) in the experiment with BT-549; 20.5 µM (inactive) in the experiment with NCI-H522; 53.7 µM (inactive) in the experiment with OVCAR-5; 18.2 µM (inactive) in the experiment with HT-29; 20.4 µM (inactive) with COLO 205. Further, the GI50 with Hs-578T was 24 µM (inactive); in the experiment with U-251, 40.2 µM (inactive); in the experiment with CCRF-CEM, 19.3 µM (inactive).

For `CCN(CC)C(=S)N/N=C/c1ccccn1`, the GI50 in the experiment on SK-MEL-2 is 0.625 µM (active); in the experiment with Malme-3M, 0.0205 µM (active); in the experiment on DU-145, 0.154 µM (active); in the experiment with HCT-15, below 0.01 µM; with SNB-75, 0.624 µM (active); in the experiment with HL-60, < 0.0149 µM (active). Besides, the GI50 in the experiment with NCI-H226 is < 0.0138 µM (active); with IGROV-1, < 0.01 µM (active); in the experiment on HOP-92 it was 0.113 µM (active); in the experiment on BT-549 it was 0.37 µM (active); with NCI-H522 it was < 0.01 µM (active); with OVCAR-5 it was 0.2 µM (active). Also, the GI50 in the experiment with LOX IMVI, with HT-29, in the experiment with COLO 205, in the experiment on U-251 and in the experiment with CCRF-CEM was < 0.01 µM (active) each time.

For the molecule `CC12ON=C(c3ccccc3)N1C=CN1C(c3ccccc3)=NOC12` (configuration not stated), the GI50 in the experiment on Malme-3M is > 100 µM (inactive); with DU-145, > 100 µM (inactive); with HCT-15, above 100 µM; in the experiment with SNB-75, > 100 µM (inactive); with NCI-H226 it was > 100 µM (inactive); with IGROV-1, > 100 µM (inactive). In addition, the GI50 in the experiment with BT-549 was > 100 µM (inactive); in the experiment with NCI-H522, > 100 µM (inactive); with OVCAR-5, > 100 µM (inactive); with LOX IMVI it was > 100 µM (inactive); in the experiment with COLO 205, 37.2 µM (inactive); in the experiment with Hs-578T it was > 100 µM (inactive).

`CCC(=O)O[C@H]1CC[C@H]2[C@@H]3CCC4=C/C(=N/NC(=O)c5cccc6c(=O)c7ccccc7[nH]c56)CC[C@]4(C)[C@H]3CC[C@]12C`: the GI50 was > 25 µM (inactive) with SK-MEL-2; above 25 µM in the experiment on HCT-15; > 25 µM (inactive) in the experiment with SNB-75; > 25 µM (inactive) with NCI-H226; > 25 µM (inactive) in the experiment with IGROV-1; > 25 µM (inactive) in the experiment on HOP-92. Further, the GI50 is > 25 µM (inactive) with BT-549; > 25 µM (inactive) in the experiment on NCI-H522; > 25 µM (inactive) with OVCAR-5; 10.1 µM (inactive) in the experiment on LOX IMVI; > 25 µM (inactive) in the experiment with HT-29; > 25 µM (inactive) in the experiment with COLO 205. In addition, the GI50 with Hs-578T, in the experiment on U-251 and with CCRF-CEM was > 25 µM (inactive) each time.

For the molecule `COCN1C(=O)[C@@H]2CCCN2C(=O)c2cc([N+](=O)[O-])ccc21`, the GI50 in the experiment with SK-MEL-2 was 64.1 µM (inactive); with Malme-3M it was 88.5 µM (inactive); in the experiment on DU-145, 39.8 µM (inactive); with HCT-15, above 100 µM; in the experiment on SNB-75, 67.9 µM (inactive); with NCI-H226, 2.21 µM (inactive). The GI50 is 35.5 µM (inactive) with IGROV-1; 62.5 µM (inactive) in the experiment with BT-549; 16 µM (inactive) in the experiment on NCI-H522; 52.7 µM (inactive) with OVCAR-5; 26.3 µM (inactive) in the experiment with LOX IMVI; 71.9 µM (inactive) in the experiment on HT-29. Moreover, the results for the GI50 with COLO 205, with Hs-578T and with U-251 were 81.3 µM (inactive), > 100 µM (inactive) and 42 µM (inactive), respectively.

On to `O=c1cc(N2CCCC2)[nH]c(=O)n1Cc1ccccc1`, for which the GI50 is > 100 µM (inactive) with SK-MEL-2; > 100 µM (inactive) with Malme-3M; > 100 µM (inactive) in the experiment on DU-145; above 100 µM in the experiment on HCT-15; > 100 µM (inactive) in the experiment on SNB-75; > 100 µM (inactive) with HL-60. The GI50 was 55.3 µM (inactive) with NCI-H226; > 100 µM (inactive) with IGROV-1; > 100 µM (inactive) in the experiment with HOP-92; > 100 µM (inactive) in the experiment on BT-549; > 100 µM (inactive) with NCI-H522; > 100 µM (inactive) in the experiment with OVCAR-5. Further, the GI50 in the experiment with LOX IMVI, in the experiment with HT-29, in the experiment on COLO 205, in the experiment with U-251 and in the experiment with CCRF-CEM was > 100 µM (inactive) throughout.

As to `NS(=O)(=O)c1cc(S(N)(=O)=O)c(NC(=O)Nc2ccc(Cl)c(Cl)c2)c(Cl)c1Cl`, the GI50 with SK-MEL-2 was > 100 µM (inactive); with HCT-15, above 100 µM; with NCI-H226, 96.2 µM (inactive); with IGROV-1, > 100 µM (inactive); in the experiment on HOP-92, 4.18 µM (inactive); in the experiment on BT-549 it was > 100 µM (inactive). In addition, the GI50 in the experiment on NCI-H522 is > 100 µM (inactive); in the experiment on OVCAR-5, > 100 µM (inactive); in the experiment on LOX IMVI it was > 100 µM (inactive); in the experiment on HT-29, > 100 µM (inactive); with COLO 205, 40.6 µM (inactive); in the experiment with Hs-578T it was > 100 µM (inactive). Moreover, in the experiment with U-251, the GI50 was > 100 µM (inactive).
